Reference: patent publication US6890889B1, “Mesotrione formulations” (priority 2000, dated 2005)

System: weed
Assay: Experiments varying water quality and application volumes
Type: in vivo
Conditions: applied at recommended rates with these adjuvant systems
Excerpt: Mesotrione, (2-[4-methylsulfonyl-2-nitrobenzoyl]-1,3-cyclohexane dione), is a new broadleaf weed herbicide being developed for post emergence and preemergence use in corn. Adjuvants are highly preferred in order to optimise its post emergence activity. Glasshouse and field experiments have been conducted to evaluate weed and crop response to mesotrione applied post emergence with several adjuvant systems. Rates of mesotrione ranged from 50 to 140 g active ingredient (ai) per […]. Adjuvant systems tested include; • (i) no adjuvant (control), • (ii) crop oil concentrate (COC), • (iii) non-ionic surfactant (NIS), and • (iv) methylated seed oil (MSO), each with and without urea ammonium nitrate (UAN and ammonium sulphate (AMS) fertilizers.
The use of methylated seed oil with mesotrione increases the potential for crop injury.

In the case of CS(=O)(=O)c1ccc(C(=O)C2C(=O)CCCC2=O)c([N+](=O)[O-])c1 [mesotrione, 2-[4-methylsulfonyl-2-nitrobenzoyl]-1,3-cyclohexane dione], the “impact of varying water quality and application volumes on activity” value is reported as “little or no impact”.
